Assay results as given in ChEMBL document CHEMBL5625199, “Discovery of triazole-bridged aryl adamantane analogs as an intriguing class of multifunctional agents for treatment of Alzheimer's disease” (Eur J Med Chem, 2023).
Each block holds one molecule with its values, some of them ahead of it. Calls of active or inactive are those of the source. The calls are words filed in the database; no cut-off is given here.

Legend:
Acetylcholinesterase [1] = target: Acetylcholinesterase (Electrophorus electricus, UniProt O42275); test: Inhibition of electric eel AChE using acetylthiocholine iodide as substrate preincubated with enzyme for 10 mins followed by substrate addition and measured every 1 min for 20 mins by spectrophotometric analysis
[2] = Antagonist activity at GluN1-1a/GluN2B (unknown origin) expressed in xenopus laevis oocytes assessed as inhibition of glycine/glutamate-induced channel current incubated for 20s measured at holding potential of -70 mV by two-electrode voltage clamp technique; type: cell-based, Homo sapiens; settings: Oocyte
Cholinesterase = Cholinesterase (Equus caballus, UniProt P81908); test: Inhibition of equine serum BuChE using butyrylthiocholine iodide as substrate preincubated with enzyme for 10 mins followed by substrate addition and measured every 1 min for 20 mins by spectrophotometric analysis
[3] = Selectivity index, ratio of IC50 for equine serum BuChE to IC50 for electric eel AChE
in vitro = settings: PAMPA
Description: Permeability of the compound at 25 ug/ml incubated or 18 hrs by PAMPA-BBB assay

[4] = Antagonist activity at NMDA receptor (unknown origin); design: species or system Homo sapiens
Acetylcholinesterase [5] = target: T1, Acetylcholinesterase (Homo sapiens, UniProt P22303); test: Inhibition of AChE (unknown origin)
Rattus norvegicus [6] = test: Antialzheimer activity against Abeta(1 to 42)-induced coginitive deficit Wistar rat model assessed as increase in total number of platform crossings at 5 mg/kg, po administered for 7 days by Morris water maze test; type: functional, organism-based; settings: time 7.0 day
Rattus norvegicus [7] = test: (§1) Antialzheimer activity against scopalamine-induced amnesia Wistar rat model assessed as inhibition of cognition impairment by measuring increase in spontaneous alterations at 5 mg/kg, po administered for 7 days and on day 7 administered with scopolamine at 30 mins before drug administration by Y-maze test; type: functional, organism-based; settings: time 7.0 day
Rattus norvegicus [8] = test: Antialzheimer activity against Abeta(1 to 42)-induced coginitive deficit Wistar rat model assessed as increase in time spent in the platform zone at 5 mg/kg, po administered for 7 days by Morris water maze test; type: functional, organism-based; settings: time 7.0 day
[9] = Antagonist activity at GluN1-1a/GluN2D (unknown origin) expressed in xenopus laevis oocytes assessed as inhibition of glycine/glutamate-induced channel current incubated for 20s measured at holding potential of -70 mV by two-electrode voltage clamp technique; type: cell-based; settings: Homo sapiens, Oocyte
[10] = Antagonist activity at GluN1-1a/GluN2A (unknown origin) expressed in xenopus laevis oocytes assessed as inhibition of glycine/glutamate-induced channel current incubated for 20s measured at holding potential of -70 mV by two-electrode voltage clamp technique; type: cell-based; settings: Homo sapiens, Oocyte
HEK-293T [11] = test: Cytotoxicity against HEK293T cells assessed as reduction in cell viability at 0.3 to 100 uM measured after 44 hrs by WST-1 assay; type: toxicity, cell-based; settings: human, dose 0.3-100 µM
[12] = Antagonist activity at GluN1-1b/GluN2D (unknown origin) expressed in xenopus laevis oocytes assessed as inhibition of glycine/glutamate-induced channel current incubated for 20s measured at holding potential of -70 mV by two-electrode voltage clamp technique; type: cell-based; settings: Homo sapiens, Oocyte
[13] = Antagonist activity at GluN1-1a/GluN2C (unknown origin) expressed in xenopus laevis oocytes assessed as inhibition of glycine/glutamate-induced channel current incubated for 20s measured at holding potential of -70 mV by two-electrode voltage clamp technique; type: cell-based; settings: Homo sapiens, Oocyte
[14] = Antagonist activity at GluN1-1b/GluN2C (unknown origin) expressed in xenopus laevis oocytes assessed as inhibition of glycine/glutamate-induced channel current incubated for 20s measured at holding potential of -70 mV by two-electrode voltage clamp technique; type: cell-based; settings: Homo sapiens, Oocyte
[15] = Antagonist activity at GluN1-1b/GluN2A (unknown origin) expressed in xenopus laevis oocytes assessed as inhibition of glycine/glutamate-induced channel current incubated for 20s measured at holding potential of -70 mV by two-electrode voltage clamp technique; type: cell-based; settings: Homo sapiens, Oocyte
[16] = Antagonist activity at GluN1-1b/GluN2B (unknown origin) expressed in xenopus laevis oocytes assessed as inhibition of glycine/glutamate-induced channel current incubated for 20s measured at holding potential of -70 mV by two-electrode voltage clamp technique; type: cell-based; settings: Homo sapiens, Oocyte
[17] = target: T2, Acetylcholinesterase (Rattus norvegicus) (UniProt P37136); test: Ex vivo inhibition of AChE activity in brain of scopalamine-induced amnesia Wistar rat model at 10 mg/kg, po administered for 7 days and on day 7 administered with scopolamine at 30 mins before drug administration; type: functional, organism-based; settings: time 7.0 day
T2 sequence (whole entry): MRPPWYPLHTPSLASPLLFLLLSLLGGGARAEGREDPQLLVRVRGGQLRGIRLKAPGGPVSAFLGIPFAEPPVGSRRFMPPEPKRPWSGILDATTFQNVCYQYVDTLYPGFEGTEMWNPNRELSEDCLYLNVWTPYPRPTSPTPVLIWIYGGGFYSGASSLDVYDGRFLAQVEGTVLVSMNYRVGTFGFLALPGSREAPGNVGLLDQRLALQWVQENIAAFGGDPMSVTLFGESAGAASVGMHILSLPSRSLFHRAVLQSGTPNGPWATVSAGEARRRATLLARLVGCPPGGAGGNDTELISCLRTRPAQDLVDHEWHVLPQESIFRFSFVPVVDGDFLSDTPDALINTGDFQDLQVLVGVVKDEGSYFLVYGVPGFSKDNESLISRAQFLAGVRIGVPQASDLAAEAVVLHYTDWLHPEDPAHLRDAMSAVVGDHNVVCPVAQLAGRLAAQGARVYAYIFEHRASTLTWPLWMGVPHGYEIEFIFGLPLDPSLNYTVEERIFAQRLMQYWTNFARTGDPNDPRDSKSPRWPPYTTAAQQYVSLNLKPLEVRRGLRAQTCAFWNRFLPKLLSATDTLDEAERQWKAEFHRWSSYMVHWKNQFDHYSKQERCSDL

Rattus norvegicus [18] = test: as §1, with “10” for “5”; type: functional, organism-based; settings: time 7.0 day
SH-SY5Y = test: Neuroprotective activity against human SH-SY5Y cells assessed as reduction of Abeta(1 to 42)-induced cytotoxicity upto 10 uM pretreated with Abeta42 for 24 hrs followed by incubation with compound for 72 hrs by MTT assay; type: functional, cell-based
[19] = target: T2, Acetylcholinesterase (Rattus norvegicus); test: Ex vivo inhibition of AChE activity in brain of scopalamine-induced amnesia Wistar rat model at 2.5 to 10 mg/kg, po administered for 7 days and on day 7 administered with scopolamine at 30 mins before drug administration; type: functional, organism-based; settings: dose 2.5-10 mg/kg, time 7.0 day
Rattus norvegicus [20] = test: Antialzheimer activity against Abeta(1 to 42)-induced coginitive deficit Wistar rat model assessed as increase in total number of platform crossings at 10 mg/kg, po administered for 7 days by Morris water maze test; type: functional, organism-based; settings: time 7.0 day
[21] = target: Amyloid-beta precursor protein (Homo sapiens) (UniProt P05067); test: Inhibition of self-induced Amyloid beta (1 to 42 residues) (unknown origin) aggregation at Abeta(1 to 42) to compound concentration ratio of 10:5 to 10:20 uM incubated for 48 hrs by ThT fluorescence method
HEK-293T [22] = test: Cytotoxicity against HEK293T cells assessed as reduction in cell viability at 0.3 to 30 uM measured after 44 hrs by WST-1 assay; type: toxicity, cell-based; settings: human, dose 0.3-30 µM
[23] = target: Amyloid-beta precursor protein (Homo sapiens) (UniProt P05067); test: Inhibition of AChE-induced Amyloid beta (1 to 42 residues) (unknown origin) aggregation at Abeta(1 to 42) to compound concentration ratio of 10:5 to 10:20 uM incubated for 48 hrs by ThT fluorescence method
Rattus norvegicus [24] = test: Antialzheimer activity against Abeta(1 to 42)-induced coginitive deficit Wistar rat model assessed as increase in time spent in the platform zone at 10 mg/kg, po administered for 7 days by Morris water maze test; type: functional, organism-based; settings: time 7.0 day
Acetylcholinesterase [25] = target: T1, Acetylcholinesterase; test: Inhibition of human AChE
Rattus norvegicus [26] = test: as §1, with “2.5 to 10” for “5”; type: functional, organism-based; settings: dose 2.5-10 mg/kg, time 7.0 day
HEK-293T [27] = test: Cytotoxicity against HEK293T cells assessed as reduction in cell viability at 100 uM measured after 44 hrs by WST-1 assay; type: toxicity, cell-based; settings: human

T1 sequence (P22303 whole entry): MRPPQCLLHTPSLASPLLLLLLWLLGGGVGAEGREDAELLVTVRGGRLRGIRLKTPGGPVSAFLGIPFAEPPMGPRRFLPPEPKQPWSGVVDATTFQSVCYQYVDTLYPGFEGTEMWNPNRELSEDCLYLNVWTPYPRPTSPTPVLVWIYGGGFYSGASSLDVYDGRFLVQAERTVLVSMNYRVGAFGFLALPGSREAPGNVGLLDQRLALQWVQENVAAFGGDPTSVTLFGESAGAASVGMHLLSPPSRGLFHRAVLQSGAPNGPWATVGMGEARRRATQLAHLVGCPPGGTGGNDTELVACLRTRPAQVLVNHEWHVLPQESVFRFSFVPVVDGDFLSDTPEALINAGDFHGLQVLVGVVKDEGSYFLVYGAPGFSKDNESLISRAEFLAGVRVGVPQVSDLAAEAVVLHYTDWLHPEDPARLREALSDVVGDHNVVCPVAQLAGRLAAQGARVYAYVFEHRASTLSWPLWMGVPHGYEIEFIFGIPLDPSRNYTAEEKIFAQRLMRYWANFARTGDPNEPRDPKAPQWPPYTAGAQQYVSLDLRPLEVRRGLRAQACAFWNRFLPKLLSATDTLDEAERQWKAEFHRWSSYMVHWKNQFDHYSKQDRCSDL
Sequence of Acetylcholinesterase (Electrophorus electricus, UniProt O42275) (O42275 whole entry): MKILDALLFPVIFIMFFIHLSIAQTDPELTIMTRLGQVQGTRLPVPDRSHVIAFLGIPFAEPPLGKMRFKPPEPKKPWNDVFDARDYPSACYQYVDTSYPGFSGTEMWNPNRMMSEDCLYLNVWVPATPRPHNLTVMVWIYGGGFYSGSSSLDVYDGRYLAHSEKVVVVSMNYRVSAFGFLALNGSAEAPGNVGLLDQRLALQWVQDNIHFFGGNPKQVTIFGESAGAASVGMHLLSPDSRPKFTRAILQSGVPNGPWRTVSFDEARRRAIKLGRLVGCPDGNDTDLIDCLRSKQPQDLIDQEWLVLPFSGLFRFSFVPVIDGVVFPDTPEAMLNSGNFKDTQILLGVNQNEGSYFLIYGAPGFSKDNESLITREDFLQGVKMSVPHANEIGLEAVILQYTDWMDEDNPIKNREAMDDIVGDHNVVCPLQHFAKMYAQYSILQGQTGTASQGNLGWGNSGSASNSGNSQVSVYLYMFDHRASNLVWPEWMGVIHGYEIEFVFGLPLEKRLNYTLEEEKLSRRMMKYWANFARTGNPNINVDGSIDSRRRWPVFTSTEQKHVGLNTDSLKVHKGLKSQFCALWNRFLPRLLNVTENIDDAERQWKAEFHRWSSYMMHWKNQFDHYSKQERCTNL
Sequence of Cholinesterase (P81908 whole entry): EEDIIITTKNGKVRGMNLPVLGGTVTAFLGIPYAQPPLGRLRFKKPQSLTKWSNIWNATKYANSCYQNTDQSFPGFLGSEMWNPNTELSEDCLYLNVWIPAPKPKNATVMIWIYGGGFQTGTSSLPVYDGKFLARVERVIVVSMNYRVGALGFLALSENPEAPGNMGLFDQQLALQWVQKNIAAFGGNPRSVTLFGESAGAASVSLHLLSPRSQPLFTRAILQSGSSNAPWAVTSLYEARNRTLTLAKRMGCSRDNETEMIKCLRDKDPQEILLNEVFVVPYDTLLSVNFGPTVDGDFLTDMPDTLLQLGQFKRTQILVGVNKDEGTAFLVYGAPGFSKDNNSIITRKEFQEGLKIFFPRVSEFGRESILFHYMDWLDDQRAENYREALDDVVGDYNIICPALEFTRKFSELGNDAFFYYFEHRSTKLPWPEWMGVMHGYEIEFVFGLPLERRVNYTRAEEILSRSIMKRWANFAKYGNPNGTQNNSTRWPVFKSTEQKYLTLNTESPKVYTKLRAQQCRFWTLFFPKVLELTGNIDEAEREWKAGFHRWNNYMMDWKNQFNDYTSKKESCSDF
Sequence of Amyloid-beta precursor protein (Homo sapiens) (P05067 whole entry, the tested form may be a part): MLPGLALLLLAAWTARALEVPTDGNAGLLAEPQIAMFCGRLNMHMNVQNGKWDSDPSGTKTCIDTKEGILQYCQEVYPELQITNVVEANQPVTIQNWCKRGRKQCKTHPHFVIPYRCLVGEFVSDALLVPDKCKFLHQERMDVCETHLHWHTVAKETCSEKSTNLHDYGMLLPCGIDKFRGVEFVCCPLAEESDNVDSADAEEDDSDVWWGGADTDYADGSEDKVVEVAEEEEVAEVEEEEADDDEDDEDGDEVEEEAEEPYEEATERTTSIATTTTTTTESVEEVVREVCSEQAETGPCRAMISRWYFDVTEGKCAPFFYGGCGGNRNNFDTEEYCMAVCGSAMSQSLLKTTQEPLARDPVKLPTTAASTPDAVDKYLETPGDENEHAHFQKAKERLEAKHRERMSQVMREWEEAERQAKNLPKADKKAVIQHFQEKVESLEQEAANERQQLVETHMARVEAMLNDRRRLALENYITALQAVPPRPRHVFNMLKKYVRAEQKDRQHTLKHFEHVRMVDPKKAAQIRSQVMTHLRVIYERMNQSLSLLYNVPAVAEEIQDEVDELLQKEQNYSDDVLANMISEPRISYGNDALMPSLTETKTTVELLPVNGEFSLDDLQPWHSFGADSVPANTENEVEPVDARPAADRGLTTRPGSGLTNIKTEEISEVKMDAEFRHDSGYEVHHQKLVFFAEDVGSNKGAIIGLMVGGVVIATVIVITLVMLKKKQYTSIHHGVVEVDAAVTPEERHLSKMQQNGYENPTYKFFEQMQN

SMILES: Cc1ccc(Cn2cc(CNC34CC5CC(CC(C5)C3)C4)nn2)cc1
IC50 (Acetylcholinesterase [1]): 0.34 µM
IC50 [2]: 197 µM
IC50 (Cholinesterase): 6.04 µM
Ratio IC50 [3]: 17.8
Papp at 18 h, 25 ug/ml (in vitro): 7.48 ×10⁻⁶ cm/s

IC50 [4]: 2.98 µM
SMILES: c1ccc(CNC23OC4C5C6CC(C7C6C4C72)C53)cc1 (centres undefined)

SMILES: COc1ccc2c(c1)c(=O)c1ccccc1n2Cc1cn(Cc2ccc(Cl)cc2)nn1
IC50 (Acetylcholinesterase [5]): 7.31 µM

SMILES: Cc1ccc(-c2cn(Cc3ccc4ccccc4c3)nn2)cc1C(=O)NCCN1CCOCC1
IC50 (Acetylcholinesterase [5]): 7.23 µM

SMILES: O=[N+]([O-])c1ccc(Cn2cc(CNC34CC5CC(CC(C5)C3)C4)nn2)cc1
IC50 (Acetylcholinesterase [1]): 1.61 µM
IC50 [2]: 21.8 µM
IC50 (Cholinesterase): 9.54 µM
Ratio IC50 [3]: 5.93
Papp at 18 h, 25 ug/ml (in vitro): 6.83 ×10⁻⁶ cm/s

SMILES: COc1cc2c(cc1OC)C(=O)C(CC1CCN(Cc3ccccc3)CC1)C2 (centres undefined)
Activity (Rattus norvegicus [6]): Active
Activity (Rattus norvegicus [7]): Active
Activity (Rattus norvegicus [8]): Active

SMILES: O=[N+]([O-])c1ccc(Cn2cc(CNC3CCCCCC3)nn2)cc1
IC50 (Acetylcholinesterase [1]): 4.64 µM
IC50 [2]: 116 µM
IC50 (Cholinesterase): 19.2 µM
Ratio IC50 [3]: 4.14
Papp at 18 h, 25 ug/ml (in vitro): 6.31 ×10⁻⁶ cm/s

SMILES: Fc1ccc(Cn2cc(CNC3CCCCCC3)nn2)cc1
IC50 (Acetylcholinesterase [1]): 1.82 µM
IC50 [2]: 97.3 µM
IC50 (Cholinesterase): 10.5 µM
Ratio IC50 [3]: 5.75
Papp at 18 h, 25 ug/ml (in vitro): 8.42 ×10⁻⁶ cm/s

SMILES: CC12CC3CC(C)(C1)CC(N)(C3)C2 [MEMANTINE]
IC50 [9]: 0.367 µM
IC50 [10]: 3.47 µM
Activity (HEK-293T [11]): Toxic
IC50 [12]: 0.592 µM
IC50 [13]: 0.222 µM
IC50 [2]: 0.778 µM
IC50 (Acetylcholinesterase [5]): 0.78 µM
IC50 [14]: 0.318 µM
IC50 [15]: 3.39 µM
Papp at 18 h, 25 ug/ml (in vitro): 6.84 ×10⁻⁶ cm/s
IC50 [16]: 1.27 µM

SMILES: Clc1ccc(Cn2cc(CNC34CC5CC(CC(C5)C3)C4)nn2)cc1
inhibition [17]: Active
Activity (Rattus norvegicus [18]): Active
IC50 (Acetylcholinesterase [1]): 0.135 µM
Activity (SH-SY5Y): Active
inhibition [19]: Dose-Dependent Effect
IC50 [9]: 789 µM
IC50 [10]: 129 µM
Activity (Rattus norvegicus [20]): Active
inhibition [21]: Dose-Dependent Effect
Activity (HEK-293T [22]): Non-Toxic
IC50 [12]: 239 µM
inhibition [23]: Dose-Dependent Effect
IC50 [13]: 143 µM
Activity (Rattus norvegicus [24]): Active
IC50 [2]: 5.05 µM
IC50 (Acetylcholinesterase [25]): 0.133 µM
IC50 (Cholinesterase): 3.8 µM
Activity (Rattus norvegicus [26]): Dose-Dependent Effect
Ratio IC50 [3]: 28.1
Activity (HEK-293T [27]): Toxic
IC50 [14]: 52.8 µM
IC50 [15]: 142 µM
Papp at 18 h, 25 ug/ml (in vitro): 8.24 ×10⁻⁶ cm/s
IC50 [16]: 2.86 µM

SMILES: COc1ccc2nc3c(c(NCCCCCNC(=S)N[C@]45CC6C[C@@H](C[C@@H](C6)C4)C5)c2c1)CCCC3
Ki [4]: 1.8 µM
IC50 (Acetylcholinesterase [25]): 0.47 µM

SMILES: Brc1ccc(Cn2cc(CNC3CCCCCC3)nn2)cc1
IC50 (Acetylcholinesterase [1]): 0.55 µM
IC50 [2]: 38.2 µM
IC50 (Acetylcholinesterase [25]): 0.621 µM
IC50 (Cholinesterase): 17.3 µM
Ratio IC50 [3]: 31.4
Papp at 18 h, 25 ug/ml (in vitro): 6.72 ×10⁻⁶ cm/s
